According to patent publication US5578725A, “Delta opioid receptor antagonists” (priority 1995, dated 1996):

How the values were obtained:
[1] = K. Arakawa et al.; cited from earlier work
[2] = target: δ opioid receptors (Mus musculus, UniProt P32300); parameters: mouse vas deferens (MVD) preparations; from tissue; host or cells: mouse vas deferens, electrically stimulated; details: MVD, DADLE; data from Korlipara et al.; 15 min; read-out: Ke; cited from earlier work
[3] = target: δ1 (Mus musculus, UniProt P32300); details: mouse, in vivo
Sequence of δ1 (P32300 whole entry): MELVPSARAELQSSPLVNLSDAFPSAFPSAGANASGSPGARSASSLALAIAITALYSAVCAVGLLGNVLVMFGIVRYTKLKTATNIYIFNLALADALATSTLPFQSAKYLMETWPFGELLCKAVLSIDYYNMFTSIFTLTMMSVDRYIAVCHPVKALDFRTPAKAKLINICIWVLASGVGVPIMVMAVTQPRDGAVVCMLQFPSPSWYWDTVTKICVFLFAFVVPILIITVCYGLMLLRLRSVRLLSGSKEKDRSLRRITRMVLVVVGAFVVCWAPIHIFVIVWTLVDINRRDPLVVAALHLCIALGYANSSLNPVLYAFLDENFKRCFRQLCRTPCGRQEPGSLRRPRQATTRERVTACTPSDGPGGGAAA

[4] = target: μ (Cavia porcellus, UniProt A0ACM8Q262); details: data from Portoghese et al.; cited from earlier work
Sequence of μ (A0ACM8Q262 1-400): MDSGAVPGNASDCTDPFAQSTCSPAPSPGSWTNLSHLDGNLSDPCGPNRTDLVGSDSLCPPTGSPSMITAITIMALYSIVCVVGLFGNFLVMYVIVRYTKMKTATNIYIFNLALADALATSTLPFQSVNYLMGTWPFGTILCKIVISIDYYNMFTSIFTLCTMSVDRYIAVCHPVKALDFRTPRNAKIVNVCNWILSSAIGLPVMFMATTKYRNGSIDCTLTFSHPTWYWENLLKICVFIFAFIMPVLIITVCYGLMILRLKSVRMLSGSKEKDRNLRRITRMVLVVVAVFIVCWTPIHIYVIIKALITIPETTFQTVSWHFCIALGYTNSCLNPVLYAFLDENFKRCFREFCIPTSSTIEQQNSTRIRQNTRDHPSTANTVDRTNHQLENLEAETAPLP

[5] = system: rats; details: compared to peptidyl delta-opioid receptor antagonists; Ser. No. 07/750,109; cited from earlier work

Sequence of δ opioid receptors (P32300 whole entry): as the sequence (P32300 whole entry) above

## Oc1ccc2c3c1O[C@H]1c4[nH]c5ccccc5c4C[C@@]4(O)[C@@H](C2)N(CC2CC2)CC[C@]314 [Compound 1, naltrindole]
[1]
  immunosuppressive activity (in words): potent immunosuppressive activity
[2]
  Kb: 0.2 nM
[3]
  Dose required to double the ED50 of DPDPE, i.c.v.: 0.3 nmol/kg
[3]; iv
  Dose required to double the ED50 of DPDPE, i.v.: 2.19 µmol/kg
  penetration into the CNS (in words): penetrates the CNS more readily than the conjugates
[4]
  Ki: 3.8 nM
[5]
  suppression of ethanol drinking (in words): unexpectedly prolonged suppression of ethanol drinking
